Measurements taken from ChEMBL document CHEMBL1201862, “PubChem BioAssay data set” (2004).
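Each compound was tested at five concentrations against cells in 96-well plates for 48 hours. GI50 marks 50% less growth.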 The source made the active and inactive calls. Cut-off read from the data, not from the text of the source: active = GI50 up to about 1.1 µM and inactive = higher.

Tests used:
Test in all cases: NCI-60 cell line screen, 48 h
KM12 = test system: KM12
TK-10 = test system: TK-10
MDA-MB-435 = test system: MDA-MB-435
SNB-19 = test system: SNB-19
HCT-15 = test system: HCT-15
UACC-257 = test system: UACC-257
SF-268 = test system: SF-268
UO-31 = test system: UO-31
OVCAR-5 = test system: OVCAR-5
EKVX = test system: EKVX
DU-145 = test system: DU-145
CCRF-CEM = test system: CCRF-CEM
NCI/ADR-RES = test system: NCI/ADR-RES
NCI-H522 = test system: NCI-H522
BT-549 = test system: BT-549
SR = test system: SR
RXF 393 = test system: RXF 393
IGROV-1 = test system: IGROV-1
SK-MEL-2 = test system: SK-MEL-2
NCI-H226 = test system: NCI-H226

Row | Structure (SMILES) | GI50 (KM12) | GI50 (TK-10) | GI50 (MDA-MB-435) | GI50 (SNB-19) | GI50 (HCT-15) [µM] | GI50 (UACC-257) | GI50 (SF-268) | GI50 (UO-31) | GI50 (OVCAR-5) | GI50 (EKVX) | GI50 (DU-145) | GI50 (CCRF-CEM) | GI50 (NCI/ADR-RES) | GI50 (NCI-H522) | GI50 (BT-549) | GI50 (SR) | GI50 (RXF 393) | GI50 (IGROV-1) | GI50 (SK-MEL-2) | GI50 (NCI-H226)
1 | CC(C)c1cc(C(C)C)c(Cl)c(Cl)c1O.CC(C)c1cc(Cl)c(O)c(C(C)C)c1Cl | 24.4 µM (inactive) | 26.5 µM (inactive) | 21.4 µM (inactive) | 23 µM (inactive) | 36.7 | 20 µM (inactive) | 18.8 µM (inactive) | 23.2 µM (inactive) | 48.3 µM (inactive) | 20.5 µM (inactive) | 35 µM (inactive) | 37.1 µM (inactive) | 32.8 µM (inactive) | 14 µM (inactive) | 19.9 µM (inactive) | 9.25 µM (inactive) | 12.5 µM (inactive) | 21.6 µM (inactive) | 18.5 µM (inactive) | –
2 | C[C@H](NC(=O)CNC(=O)CCCCCC(=O)NCC(=O)N[C@@H](C)C(=O)OCc1ccccc1)C(=O)OCc1ccccc1 | > 100 µM (inactive) | > 100 µM (inactive) | > 100 µM (inactive) | > 100 µM (inactive) | > 100 | > 100 µM (inactive) | > 100 µM (inactive) | – | > 100 µM (inactive) | > 100 µM (inactive) | > 100 µM (inactive) | > 100 µM (inactive) | > 100 µM (inactive) | – | > 100 µM (inactive) | > 100 µM (inactive) | > 100 µM (inactive) | > 100 µM (inactive) | > 100 µM (inactive) | > 100 µM (inactive)
3 | [N-]=[N+]=Nc1ccccc1-c1ccccc1[N+](=O)[O-] | 49.2 µM (inactive) | 39.4 µM (inactive) | 32.3 µM (inactive) | > 100 µM (inactive) | 42.6 | 25.4 µM (inactive) | 36.1 µM (inactive) | 72.8 µM (inactive) | > 100 µM (inactive) | 39.4 µM (inactive) | 88.5 µM (inactive) | – | 29.9 µM (inactive) | 14.9 µM (inactive) | 32.3 µM (inactive) | 28.1 µM (inactive) | 86.1 µM (inactive) | > 100 µM (inactive) | 27.2 µM (inactive) | –
4 | COc1c(O)c(OC)c2oc(-c3ccc(O)cc3)c(OC)c(=O)c2c1O | 88.5 µM (inactive) | 61.5 µM (inactive) | 33.6 µM (inactive) | > 100 µM (inactive) | 28.1 | 76.2 µM (inactive) | 8.73 µM (inactive) | 34.7 µM (inactive) | > 100 µM (inactive) | 97.5 µM (inactive) | 29.3 µM (inactive) | 37.5 µM (inactive) | 61 µM (inactive) | 26.1 µM (inactive) | 43.2 µM (inactive) | 60.1 µM (inactive) | – | 17.8 µM (inactive) | 42.5 µM (inactive) | 50.9 µM (inactive)
5 | O=C1CSC(c2ccc([N+](=O)[O-])cc2)N1c1ccc(-n2c(-c3ccccc3)nc3ccccc3c2=O)cc1 (stereo not drawn) | 31.7 µM (inactive) | > 100 µM (inactive) | > 100 µM (inactive) | > 100 µM (inactive) | 41.3 | > 100 µM (inactive) | 38.5 µM (inactive) | 2.56 µM (inactive) | > 10 µM (inactive) | > 100 µM (inactive) | > 100 µM (inactive) | > 100 µM (inactive) | 60.7 µM (inactive) | 40.8 µM (inactive) | 16.7 µM (inactive) | 14.6 µM (inactive) | – | > 100 µM (inactive) | > 100 µM (inactive) | 2.96 µM (inactive)
6 | OC(Cc1ccc2ccccc2n1)(C(F)(F)F)C(F)(F)F | > 10 µM (inactive) | > 10 µM (inactive) | > 10 µM (inactive) | > 10 µM (inactive) | > 10 | > 10 µM (inactive) | > 10 µM (inactive) | > 10 µM (inactive) | > 10 µM (inactive) | > 10 µM (inactive) | > 10 µM (inactive) | > 10 µM (inactive) | > 10 µM (inactive) | > 10 µM (inactive) | > 10 µM (inactive) | > 10 µM (inactive) | – | > 10 µM (inactive) | – | –
7 | COC(=O)C[C@](O)(CCCC(C)(C)O)C(=O)O[C@@H]1C(OC)=C[C@]23CCCN2CCc2cc4c(cc2[C@H]13)OCO4 [OMACETAXINE MEPESUCCINATE] | 0.142 µM (active) | 3.74 µM (inactive) | 4.46 µM (inactive) | 0.0706 µM (active) | 0.217 | – | 0.149 µM (active) | 0.546 µM (active) | 0.494 µM (active) | 0.133 µM (active) | 0.741 µM (active) | 0.0215 µM (active) | 3.87 µM (inactive) | – | 3.6 µM (inactive) | 0.0327 µM (active) | 0.107 µM (active) | 0.129 µM (active) | 0.259 µM (active) | 0.09 µM (active)
